This is an account of results in ChEMBL document CHEMBL4725396, “Discovery and optimization of pyrazolopyrimidine sulfamates as ATG7 inhibitors” (Bioorg Med Chem, 2020).

By pEC50 is commonly meant the negative decadic logarithm of the EC50, by convention in mol/L. Broadly, the pIC50 is −log10 of the IC50, conventionally taken in molar units.

One assay deals with NCI-H1650. Briefly: Antiproliferative activity against human H1650 cells assessed as reduction in cell viability after 72 hrs by cell titer glow assay. In kind it is cell-based. The following applies: NCI-H1650, 72 h. (In ATP-based viability assays light output follows the ATP content of the culture.)
Assay [1] addresses T1, Ubiquitin-like modifier-activating enzyme ATG7 (Homo sapiens, UniProt O95352).
T1 sequence (O95352 whole entry): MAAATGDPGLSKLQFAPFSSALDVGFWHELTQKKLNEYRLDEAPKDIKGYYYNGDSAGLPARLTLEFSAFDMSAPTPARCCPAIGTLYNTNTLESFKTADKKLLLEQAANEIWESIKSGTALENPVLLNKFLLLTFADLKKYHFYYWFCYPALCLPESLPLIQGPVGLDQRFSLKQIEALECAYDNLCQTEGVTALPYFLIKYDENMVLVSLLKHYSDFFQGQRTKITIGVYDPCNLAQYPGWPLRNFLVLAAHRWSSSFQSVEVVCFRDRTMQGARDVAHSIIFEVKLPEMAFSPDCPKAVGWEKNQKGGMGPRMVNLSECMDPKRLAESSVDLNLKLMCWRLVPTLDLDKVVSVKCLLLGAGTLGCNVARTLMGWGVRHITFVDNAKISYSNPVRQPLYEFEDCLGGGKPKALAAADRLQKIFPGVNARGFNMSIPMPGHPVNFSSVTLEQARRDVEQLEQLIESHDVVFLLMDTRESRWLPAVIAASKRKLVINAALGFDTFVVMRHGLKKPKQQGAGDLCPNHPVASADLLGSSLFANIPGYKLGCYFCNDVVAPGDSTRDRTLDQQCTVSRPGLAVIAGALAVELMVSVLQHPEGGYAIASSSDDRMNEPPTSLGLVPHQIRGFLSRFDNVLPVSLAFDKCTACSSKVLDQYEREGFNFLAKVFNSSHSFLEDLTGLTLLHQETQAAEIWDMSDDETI
The assay is described as follows: Inhibition of recombinant His-tagged human ATG7 incubated for 105 mins in presence of GST-tagged ATG3 and Flag-tagged Gabarap and measured after 2 hrs by FRET assay relative to control.

The target in assay [2] is T1, Ubiquitin-like modifier-activating enzyme ATG7. The assay is described as follows: Inhibition of ATG7 in human 293HEK cells assessed as inhibition of ATG7:ATG8 thioester formation after 4 hrs by Western blot analysis. In kind it is cell-based, HEK293. A general note: A western blot detects proteins with antibodies after separation by electrophoresis.
A short description of assay [3]: […] of autophagy in human H4 cells assessed as decrease in LC3B spot area by immunofluorescence assay. In kind it is functional, cell-based.
In assay [4] the test system is SK-OV-3. The assay is described as follows: […] of autophagy in human SKOV3 cells assessed as accumulation of NRB1 by immunofluorescence assay. In kind it is functional, cell-based.
The test system of assay [5] is SK-OV-3. Briefly: […] of autophagy in human SKOV3 cells assessed as accumulation of p62 by immunofluorescence assay. In kind it is functional, cell-based.
The nature of assay [6]: Inhibition of UAE (unknown origin).
Assay [7] in a line: Inhibition of NAE (unknown origin).
Assay [8] is described as follows: Inhibition of SAE (unknown origin).
Assay [9] addresses T1, Ubiquitin-like modifier-activating enzyme ATG7. Briefly: Inhibition of ATG7 in human 293HEK cells assessed as inhibition of ATG7:ATG8 thioester formation after 8 hrs by Western blot analysis. In kind it is cell-based, HEK293.

pEC50, pIC50: −log10 of the molar value. Bounds are passed on as bounds.

`CCSc1nn([C@H]2C[C@H](O)[C@@H](COS(N)(=O)=O)O2)c2ncnc(N)c12`: the results for the pEC50 in the assay with NCI-H1650, with SK-OV-3 [4] and in the assay on SK-OV-3 [5] were under 4.30, under 4.70 and 5.64, respectively. Moreover, the pIC50 was 7.28 in [1]; 6.44 in assay [2]; 5.87 in assay [3]; under 6.00 in assay [6]; under 6.00 in assay [7]; under 6.00 in [8].

Turning to `CSc1nn([C@H]2C[C@H](O)[C@@H](COS(N)(=O)=O)O2)c2ncnc(N)c12`, the results for the pEC50 in the assay with NCI-H1650, in the assay with SK-OV-3 [4] and with SK-OV-3 [5] were 4.98, under 4.70 and 5.52, respectively. Also, the pIC50 in assay [1] was 7.32; in [2], 6.55; in assay [3], 6.03; in [6], under 6.00; in assay [7] it was under 6.00; in [8] it was under 6.00. For the same molecule, in assay [9], the pIC50 is 7.07.
